For test [1], the system named is CD20+ Daudi lymphoma cells. The test is described as follows: Flow cytometry staining of CD20+ Daudi lymphoma cells. The class given is cell-based. To be noted: CD20+ Daudi lymphoma cells incubated 30 minutes at 4° C., washed with FACS buffer. On the procedure: FIG. 1 is a series of scatter plots from flow cytometry studies using a polypeptide having the sequence […] (SEQ ID NO:3) that was labeled with QDs that emit at a wavelength of 565 nm, and complexed with a therapeutic antibody (rituximab). […] CD20+ Daudi lymphoma cells were incubated with isotype control, FITC-rituximab, peptide-QD only, peptide-QD+rituximab (10:1), and peptide-QD+rituximab (25:1) for 30 minutes at 4° C. After washing with FAGS buffer (PBS+0.5% BSA and 0.5% Na azide), the stained cells were analyzed by flow cytometry for recognition of CD20. The Daudi cells were 95% CD20+ (top left), 11.62% positive when stained with peptide-QD only (bottom left), and 57.02% and 61.31% positive with peptide-QD-rituximab at 10:1 and 25:1 (bottom center and bottom right, respectively).
The fluorescently labeled peptide was then bound to rituximab, trastuzumab, or atezolizumab and tested for binding to tumor cells expressing the pertinent tumor target. […] CD20+ Daudi lymphoma cells were incubated with isotype control, FITC-rituximab, polypeptide-QD only, polypeptide-QD-rituximab (10:1) complex, and polypeptide-QD-rituximab (25:1) complex for 30 minutes at 4° C. After washing with FACS buffer (PBS+0.5% BSA and 0.5% Na azide), the stained cells were analyzed by flow cytometry. […]
Background: A flow cytometer gives signals particle by particle.

In test [2] the test system is SK-Br-3 (HER2/neu-positive) cells. Briefly: Flow cytometry staining of HER2/neu-positive SK-Br-3 cells. The class given is cell-based. The procedure: FIG. 4 is a series of scatter plots from flow cytometry studies using SK-Br-3 (HER2/neu-positive) cells stained with a SEQ ID NO:3-QD-trastuzumab complex. The SK-Br-3 cells were incubated with isotype control antibody (top left), PE-anti-HER2 (top middle), SEQ ID NO:3-QD only (top right), and SEQ ID NO:3-QD-trastuzumab complex (bottom left). The cells were 84.7% positive for HER2/neu, 15.9% positive with SEQ ID NO:3-QD only and 68.9% positive with SEQ ID NO:3-QD-trastuzumab complex. A histogram representation of the data is included at the bottom right of the figure.
Additional experiments utilized HER2/neu-positive SK-Br-3 cells stained with polypeptide-QD bound to trastuzumab. The SK-Br-3 cells were incubated with isotype (FIG. 4, top left), PE-anti-HER2 (FIG. 4, top middle), polypeptide-QD only (FIG. 4, top right), and polypeptide-QD-trastuzumab complex (FIG. 4, bottom left). The cells were 84.7% positive for HER2/neu, 15.9% positive with polypeptide-QD only and 68.9% positive with the polypeptide-QD-trastuzumab complex. A histogram representation of the data is shown at the bottom right of […].

Two substances from patent publication US11971412B2, “Polypeptide-antibody complexes and uses thereof” (Mayo Foundation for Medical Education and Research, priority 2017, dated 2024) can be followed below.

Ends that are not written are not given here.

Regarding “FITC-rituximab: FITC-labeled rituximab used as direct CD20 stain of Daudi cells [reference compound]”, the “Daudi cells positive by flow cytometry” value in test [1] amounted to 95%.
Regarding “polypeptide-QD only: SEQ ID NO:3 polypeptide thiol-linked via SMCC crosslinker to PEG-coated Quantum Dots, without antibody (CGSGGGSVVLNQLCVLHEKTPVSDR; not fully specified (residue 1); also: Cys1 thiol linked via SMCC to PEG-coated quantum dot)”, the “Daudi cells positive by flow cytometry” value in test [1] is 11.62%. Besides, the “SK-Br-3 cells positive by flow cytometry” value in test [2] is reported as 15.9%.
